This is an account of results in EP0908457B1, “3-(1,2-benzisothiazol- and isoxazol-5-Y1)-2,4(1H,3H)-pyrimidinedione or thione and 3-(1,2-benzisothiazol- and isoxazol-5-y1)-4(3H)-pyrimidinone or thione herbicidal agents” (BASF AKTIENGESELLSCHAFT, priority 1997, dated 1999).

Common to all, as to assay type: in vivo
In test [1] the test system is Echinochloa oryzoides (Ard.) Fritsch. In words: Preemergence weed control under flooded paddy conditions, ECHORC (Watergrass (Calif.)). On herbicidal effect rating, ECHORC: meaning of each grade not given here. As to conditions: flooded paddy; for ECHORC: herbicidal effect rating 0-9, three to four weeks after treatment; for ECHORC herbicidal rating / herbicidal effect rating, ECHORC: rated three to four weeks after treatment.
Another test relates to Cyperus iria. In words: Preemergence weed control under flooded paddy conditions, CYPIR (Rice Flatsedge). On herbicidal effect rating, CYPIR: meaning of each grade not given here. As to conditions: flooded paddy; for CYPIR: herbicidal effect rating 0-9, three to four weeks after treatment; for CYPIR herbicidal rating / herbicidal effect rating, CYPIR: rated three to four weeks after treatment.
Test [2] deals with Cyperus serotinus, Rottb. In words: Preemergence weed control under flooded paddy conditions, CYPSE (Flatsedge). On herbicidal effect rating, CYPSE: meaning of each grade not given here. To be noted: for CYPSE: herbicidal effect rating 0-9, three to four weeks after treatment; for CYPSE herbicidal rating / herbicidal effect rating, CYPSE: rated three to four weeks after treatment.
For test [3], the system named is Monochoria vaginalis, Presl. In words: Preemergence weed control under flooded paddy conditions, MOOVA (Monochoria). On herbicidal effect rating, MOOVA: meaning of each grade not given here. To be noted: flooded paddy; for MOOVA: herbicidal effect rating 0-9, three to four weeks after treatment; for MOOVA herbicidal rating / herbicidal effect rating, MOOVA: rated three to four weeks after treatment.
The test system of the next test is Sagittaria pygmaea, L. In words: Preemergence weed control under flooded paddy conditions, SAGPY (Arrowhead (Pygmaea)). On herbicidal effect rating, SAGPY: meaning of each grade not given here. To be noted: flooded paddy; for SAGPY: herbicidal effect rating 0-9, three to four weeks after treatment; for SAGPY herbicidal rating / herbicidal effect rating, SAGPY: rated three to four weeks after treatment.
Where [4] appears, read: 0.0320 kg/ha, preemergence weeds.
Where [5] appears, read: 0.0620 kg/ha, preemergence weeds.
The mark [6] stands for this setting: 0.1250 kg/ha, preemergence weeds.
Where [7] appears, read: 0.2500 kg/ha, preemergence weeds.
Where [8] appears, read: Rate 0.0320 kg/ha, preemergence.
Setting [9] is: Rate 0.0620 kg/ha, preemergence.
Setting [10] is: Rate 0.1250 kg/ha, preemergence.
Setting [11] is: Rate 0.2500 kg/ha, preemergence.
The mark [12] stands for this setting: Rate 0.5000 kg/ha, preemergence.
Setting [13] is: 0.0313 kg/ha, preemergence weeds.
The mark [14] stands for this setting: 0.0625 kg/ha, preemergence weeds.

The structures appear in SMILES notation.

Regarding `Cn1c(C(F)(F)F)cc(=O)n(-c2ccc3snc(C(SCCCO)SCCCO)c3c2)c1=O` [Example 424, 1,2-Benzisothiazole-3-carboxaldehyde, 5-[3,6-dihydro-3-methyl-2,6-dioxo-4-(trifluoromethyl)-1(2H)-pyrimidinyl]-, 3-[bis(3-hydroxypropyl)dithioacetal]], the ECHORC in test [1] (setting [4]) is given as 0.0; in test [1] (setting [5]) it was 0.0; in test [1] (setting [6]), 3.0; in test [1] (setting [7]), 3.0. The CYPIR with Cyperus iria (setting [4]) is given as 4.0; with Cyperus iria (setting [5]) it was 5.0; with Cyperus iria (setting [6]) it was 6.0; with Cyperus iria (setting [7]), 7.0. Also, the CYPSE in test [2] (setting [6]) and in test [2] (setting [7]) was 3.0 each time. Further, the MOOVA in test [3] (setting [4]) amounted to 7.0; in test [3] (setting [5]), 9.0; in test [3] (setting [6]) it was 9.0; in test [3] (setting [7]), 9.0. The SAGPY in the test with Sagittaria pygmaea, L. (setting [4]) worked out at 0.0; with Sagittaria pygmaea, L. (setting [5]), 0.0; with Sagittaria pygmaea, L. (setting [6]) it was 0.0; in the test with Sagittaria pygmaea, L. (setting [7]) it was 0.0.
On to `COC(=O)COc1cc(C)c(I)cc1-c1nsc2ccc(-n3c(=O)cc(C(F)(F)F)n(C)c3=O)cc12` [Example 469, Acetic acid, {{6-{5-[3,6-dihydro-3-methyl-2,6-dioxo-4-(trifluoromethyl)-1(2H)-pyrimidinyl]-1,2-benzisothiazol-3-yl}-4-iodo-m-tolyl}oxy}-, methyl ester], for which the ECHORC herbicidal rating in test [1] (0.0320 kg/ha, preemergence) is reported as 7.0; in test [1] (0.0620 kg/ha, preemergence), 9.0; in test [1] (0.1250 kg/ha, preemergence), 9.0; in test [1] (0.2500 kg/ha, preemergence), 9.0. The CYPIR herbicidal rating stood at 0.0 in the test with Cyperus iria (0.0320 kg/ha, preemergence); 1.5 with Cyperus iria (0.0620 kg/ha, preemergence); 6.5 in the test on Cyperus iria (0.1250 kg/ha, preemergence); 7.0 with Cyperus iria (0.2500 kg/ha, preemergence). In addition, the CYPSE herbicidal rating in test [2] (0.0320 kg/ha, preemergence) amounted to 0.0; in test [2] (0.0620 kg/ha, preemergence) it was 4.5; in test [2] (0.1250 kg/ha, preemergence) it was 9.0; in test [2] (0.2500 kg/ha, preemergence), 6.0. In addition, the MOOVA herbicidal rating in test [3] (0.0320 kg/ha, preemergence) worked out at 2.0; in test [3] (0.0620 kg/ha, preemergence), 4.5; in test [3] (0.1250 kg/ha, preemergence), 5.0; in test [3] (0.2500 kg/ha, preemergence), 8.0. Moreover, the SAGPY herbicidal rating in the test with Sagittaria pygmaea, L. (0.0320 kg/ha, preemergence) stood at 0.0; in the test with Sagittaria pygmaea, L. (0.0620 kg/ha, preemergence), 1.5; in the test on Sagittaria pygmaea, L. (0.1250 kg/ha, preemergence), 2.5; with Sagittaria pygmaea, L. (0.2500 kg/ha, preemergence), 3.0.
For `Cn1c(C(F)(F)F)cc(=O)n(-c2ccc3snc(COC(=O)c4ccccc4)c3c2)c1=O` [Example 364, 2,4(1H,3H)-Pyrimidinedione, 3-[3-(hydroxymethyl)-1,2-benzisothiazol-5-yl]-1-methyl-6-(trifluoromethyl)-, benzoate (ester)], the “herbicidal effect rating, ECHORC” value is listed as 3.0 in test [1] (setting [8]); 5.0 in test [1] (setting [9]); 6.0 in test [1] (setting [10]); 6.0 in test [1] (setting [11]); 7.0 in test [1] (setting [12]). Moreover, the “herbicidal effect rating, CYPIR” value in the test on Cyperus iria (setting [8]) is 7.0; in the test with Cyperus iria (setting [9]), 7.0; in the test with Cyperus iria (setting [10]) it was 9.0; in the test with Cyperus iria (setting [11]), 9.0; in the test with Cyperus iria (setting [12]), 9.0. Further, the “herbicidal effect rating, CYPSE” value in test [2] (setting [8]) was 3.0; in test [2] (setting [9]), 3.0; in test [2] (setting [10]) it was 5.0; in test [2] (setting [11]) it was 6.0; in test [2] (setting [12]) it was 7.0. The “herbicidal effect rating, MOOVA” value in test [3] (setting [8]), in test [3] (setting [9]), in test [3] (setting [10]), in test [3] (setting [11]) and in test [3] (setting [12]) was 9.0 throughout. The “herbicidal effect rating, SAGPY” value in the test with Sagittaria pygmaea, L. (setting [8]) was found to be 4.0; in the test on Sagittaria pygmaea, L. (setting [9]), 4.0; in the test with Sagittaria pygmaea, L. (setting [10]), 5.0; in the test with Sagittaria pygmaea, L. (setting [11]), 9.0; with Sagittaria pygmaea, L. (setting [12]), 9.0.
On to `Cn1c(C(F)(F)F)cc(=O)n(-c2ccc3snc(COC(=O)c4ccc(Cl)nc4)c3c2)c1=O` [Example 481, 2,4(1H,3H)-Pyrimidinedione, 3-[3-(hydroxymethyl)-1,2-benzisothiazol-5-yl]-1-methyl-6-(trifluoromethyl)-, 6-chloronicotinate (ester)], for which the ECHORC herbicidal rating was 0.0 in test [1] (0.0320 kg/ha, preemergence); 2.0 in test [1] (0.0620 kg/ha, preemergence); 9.0 in test [1] (0.1250 kg/ha, preemergence); 9.0 in test [1] (0.2500 kg/ha, preemergence). The CYPIR herbicidal rating in the test with Cyperus iria (0.0320 kg/ha, preemergence) came out at 0.0; with Cyperus iria (0.0620 kg/ha, preemergence), 2.0; in the test on Cyperus iria (0.1250 kg/ha, preemergence), 6.0; with Cyperus iria (0.2500 kg/ha, preemergence), 9.0. The same compound gave a CYPSE herbicidal rating in test [2] (0.2500 kg/ha, preemergence) of 6.0. Moreover, the MOOVA herbicidal rating in test [3] (0.0320 kg/ha, preemergence) is 6.0; in test [3] (0.0620 kg/ha, preemergence), 7.0; in test [3] (0.1250 kg/ha, preemergence), 7.0; in test [3] (0.2500 kg/ha, preemergence) it was 9.0. In addition, the SAGPY herbicidal rating in the test with Sagittaria pygmaea, L. (0.0320 kg/ha, preemergence) amounted to 0.0; in the test on Sagittaria pygmaea, L. (0.0620 kg/ha, preemergence), 0.0; in the test with Sagittaria pygmaea, L. (0.1250 kg/ha, preemergence), 0.0.
In the case of `Cn1c(C(F)(F)F)cc(=O)n(-c2ccc3snc(COC(=O)Cc4ccc(Cl)cc4)c3c2)c1=O` [Example 452, 2,4(1H,3H)-Pyrimidinedione, 3-[3-(hydroxymethyl)-1,2-benzisothiazol-5-yl]-1-methyl-6-(trifluoromethyl)-, (p-chlorophenyl)acetate (ester)], the ECHORC in test [1] (setting [4]) is recorded as 0.0; in test [1] (setting [5]), 3.0; in test [1] (setting [6]), 3.0; in test [1] (setting [7]), 7.0. The CYPIR with Cyperus iria (setting [4]) is 4.0; with Cyperus iria (setting [5]) it was 6.0; in the test on Cyperus iria (setting [6]), 9.0; in the test with Cyperus iria (setting [7]) it was 9.0. For the same compound, the CYPSE in test [2] (setting [4]) was found to be 0.0; in test [2] (setting [7]) it was 7.0. Moreover, the MOOVA in test [3] (setting [4]), in test [3] (setting [5]), in test [3] (setting [6]) and in test [3] (setting [7]) was 9.0 each time. Moreover, the SAGPY in the test with Sagittaria pygmaea, L. (setting [4]) is 0.0; in the test on Sagittaria pygmaea, L. (setting [5]), 0.0; in the test with Sagittaria pygmaea, L. (setting [6]) it was 0.0; in the test on Sagittaria pygmaea, L. (setting [7]), 2.0.
With `Cc1ccc(OCC(=O)OC(C)C(=O)O)c(-c2nsc3ccc(-n4c(=O)cc(C(F)(F)F)n(C)c4=O)cc23)c1` (racemic) [Example 190, 2-{{2-{5-[3,6-Dihydro-3-methyl-2,6-dioxo-4-(trifluoromethyl)-1(2H)-pyrimidinyl]-1,2-benzisothiazol-3-yl}-p-tolyl}oxy}acetoxy}-propionic acid, DL-], the “herbicidal effect rating, ECHORC” value is on record as 2.0 in test [1] (setting [13]), 4.0 in test [1] (setting [14]), 7.0 in test [1] (setting [6]) and 8.0 in test [1] (setting [7]). Besides, the “herbicidal effect rating, CYPIR” value in the test on Cyperus iria (setting [13]) was 0.0; in the test on Cyperus iria (setting [14]) it was 0.0; in the test on Cyperus iria (setting [6]), 2.0; with Cyperus iria (setting [7]), 4.0. In addition, the “herbicidal effect rating, CYPSE” value in test [2] (setting [13]), in test [2] (setting [14]), in test [2] (setting [6]) and in test [2] (setting [7]) was 0.0 each time. Moreover, the “herbicidal effect rating, MOOVA” value in test [3] (setting [13]), in test [3] (setting [14]), in test [3] (setting [6]) and in test [3] (setting [7]) was 9.0 in each case. Besides, the “herbicidal effect rating, SAGPY” value in the test with Sagittaria pygmaea, L. (setting [13]) came out at 0.0; in the test on Sagittaria pygmaea, L. (setting [14]) it was 0.0; in the test with Sagittaria pygmaea, L. (setting [6]), 0.0; in the test on Sagittaria pygmaea, L. (setting [7]), 0.0.
